Laboratory results from patent publication US11654138B2, “Therapeutic agents for treating and preventing autoimmune diseases and cancer and a screening method” (KING FAISAL UNIVERSITY, priority 2019, dated 2023).

Target: T1, Arid5a binding to OX40 ADE-like stem loop (Mus musculus, UniProt Q3U108)
T1 construct: expressed in transfected cells; host or cells: HEK293T (cell lysate)
T1 sequence (Q3U108 1-590): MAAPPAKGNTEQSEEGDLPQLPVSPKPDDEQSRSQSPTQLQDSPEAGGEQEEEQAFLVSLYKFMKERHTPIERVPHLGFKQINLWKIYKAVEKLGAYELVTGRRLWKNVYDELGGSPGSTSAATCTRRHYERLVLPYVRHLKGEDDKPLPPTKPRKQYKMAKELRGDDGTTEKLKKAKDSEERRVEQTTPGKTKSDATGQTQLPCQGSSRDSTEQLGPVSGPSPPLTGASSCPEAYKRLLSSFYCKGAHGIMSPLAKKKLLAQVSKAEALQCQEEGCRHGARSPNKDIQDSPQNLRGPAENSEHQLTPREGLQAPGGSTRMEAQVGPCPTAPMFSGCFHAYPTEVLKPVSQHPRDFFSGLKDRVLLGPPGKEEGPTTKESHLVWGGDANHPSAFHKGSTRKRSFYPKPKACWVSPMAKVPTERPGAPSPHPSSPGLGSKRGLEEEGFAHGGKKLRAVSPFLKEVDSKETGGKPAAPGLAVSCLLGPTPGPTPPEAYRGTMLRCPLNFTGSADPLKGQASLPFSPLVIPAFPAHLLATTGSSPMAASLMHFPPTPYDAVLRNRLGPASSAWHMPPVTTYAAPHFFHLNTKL
Test: RNA-Arid5a binding assay
Details: Flag-Arid5a-enriched HEK293T lysate, immunoblot, FIG. 4
Procedure: An RNA-protein binding assay was performed to confirm that POE inhibits the physical binding of Arid5a to the (ADE)-like stem loop in the OX40 3′UTR. Briefly, a 3′-biotinylated OX40 ADE-like stem loop (RNA; 5′-[…]-3′) (SEQ ID NO: 2) was conjugated to streptavidin beads. The OX40 ADE-like stem loop/streptavidin bead conjugate was then mixed with Flag-Arid5a-enriched HEK293T cell lysate, washed, and proteins bound to RNA were eluted for immunoblot. Anti-Flag antibodies were used to detect Flag-Arid5a in the eluate by SDS-PAGE analysis.

O=C(CSc1nnc(-c2ccncc2)o1)c1ccccc1 [POE, 1-Phenyl-2-(5-pyridin-4-yl-[1,3,4]oxadiazol-2-ylsulfanyl)-ethanone]
Physical binding of Arid5a to OX40 ADE-like stem loop: inhibited the physical binding of Arid5a to OX40 ADE-like stem loop in a concentration-dependent manner
